Measured values: patent US11534412B2, “Application of totarol and pharmaceutical composition containing totarol” (Emergopharm SP. Z O.O. SP.K., priority 2017, dated 2022)

System: Lactobacillus plantarum - clinical strain
Assay: Determination of the MIC value of totarol, broth dilution in 96-well plates with OD and quantitative culture
Type: cell-based
Details: for OD, average of 3 measurements / OD: 620 nm
Protocol: Test of antibacterial activity of totarol using DMI (dimethylisosorbide) as a solvent.
A suspension of 0.5 McF in physiological saline (suspension density 10^8 cfu/ml) was prepared from a 24-hour culture of a standard strain. 1 ml of the suspension was collected to 9 ml of a TSB broth ([…]). Suspensions with a dilution of 10^−6 were prepared in the described way. A suspension with a cell density of 10^5 cfu/ml was selected for further investigations. For each strain, 2 96-well plates were prepared: the first one was intended for the OD measurement, the second one—for quantitative culture on solid media. • A/ to wells B1-D1, B2-D2 and B-D 4-11, 100 µl of the broth were added; • B/ to wells B3-D3, 200 µl of the broth were added; • C/ to wells B1-D1, 1 µl of stock I was added; • D/ to wells B2-D2, 1 µl of stock II was added; • E/ to wells B3-D3, 2 µl of stock III were added. Using a multichannel pipette, 100 µl of the sample were collected from each of the B3-D3 wells and placed in wells B4-D4 (mixing by sucking the content in and letting it out for 5 times). The pipette tips were replaced and 100 µl of the content were collected from of the B4-D4 wells, and placed in wells B5-D5, mixing as previously. These operations were repeated through the wells B11-D11. The content in the B11-D11 wells was mixed, and 100 µl of the fluid were collected and discarded. This way, a series of dilutions of totarol samples in DMI in the range of 0.32% to 0.0004% was obtained. Then, 100 µl of a corresponding bacterial culture were added to the wells B, C, D 1-11. In consequence, a change in the final concentration range occurred, to 0.16%-0.0002%. Control Preparation: • Negative control: 100 µl of the broth+1 pl DMI were added to the Al well. • Positive control (I): 100 µl of the broth with the bacterial culture were added to the wells E1-G1. • Diluent positive control (II): 100 µl of the broth with the bacterial culture+1 pl DMI were added to the wells E2-G2. The OD value in the individual wells was read at the wavelength of 620 nm (read time 0). From the second 96-well plate, a culture was inoculated by a quantitative method from every dilution onto a well with a proper solid medium, and incubated for 24 h at 37° C. under aerobic or anaerobic conditions, depending on the strain. The plates were incubated under aerobic conditions or in an atmosphere of an elevated CO2 concentration (for the strains requiring it) in an incubator at 37° C. The OD was read after 8 h, 16 h, and 24 h, respectively. Before every OD measurement, the contents of the wells were mixed delicately. In parallel to the OD readout, cultures we inoculated from the second 96-well plate, from every dilution, into plates with a proper solid medium, and incubated for 24 h at 37° C., under aerobic or anaerobic conditions. For the analysis of the experimental results, an average value of the OD measurement obtained from three repetitions in the individual times (0, 8, 16, and 24 h) for the individual microbes (Gardnerella vaginalis, Streptococcus agalactiae, Enterococcus faecalis, Lactobacillus gasseri/plantarum) was taken. Additionally, the number of bacteria grown on solid media was taken into account. The results of the tests confirm the specific, concentration-dependent selectiveness, and the high antibacterial effectiveness of totarol against the pathogenic microorganisms: Gardnerella vaginalis, Streptococcus agalactiae, Enterococcus faecalis at low MIC values safe for bacteria of the Lactobacillus genus.

## CC(C)c1c(O)ccc2c1CC[C@H]1C(C)(C)CCC[C@]21C [Totarol, totarol]
L. plantarum
  MIC value: 0.08%
Totarol 0.0002%, 0 h
  viable count by quantitative culture (cfu/ml): 3.9 × 10^5 cfu/ml
  OD, average of 3 measurements: 0.291
Totarol 0.0002%, 8 h
  viable count by quantitative culture (cfu/ml): 3.5 × 10^5 cfu/ml
  OD, average of 3 measurements: 0.305
Totarol 0.0002%, 16 h
  viable count by quantitative culture (cfu/ml): 4.2 × 10^6 cfu/ml
  OD, average of 3 measurements: 0.854
Totarol 0.0002%, 24 h
  viable count by quantitative culture (cfu/ml): 2.9 × 10^7 cfu/ml
  OD: 1.469
Totarol 0.0004%, 0 h
  viable count by quantitative culture (cfu/ml): 2.1 × 10^5 cfu/ml
  OD, average of 3 measurements: 0.304
Totarol 0.0004%, 8 h
  viable count by quantitative culture (cfu/ml): 2 × 10^5 cfu/ml
  OD, average of 3 measurements: 0.309
Totarol 0.0004%, 16 h
  viable count by quantitative culture (cfu/ml): 3.9 × 10^6 cfu/ml
  OD, average of 3 measurements: 0.892
Totarol 0.0004%, 24 h
  viable count by quantitative culture (cfu/ml): 3.1 × 10^7 cfu/ml
  OD: 1.508
Totarol 0.0007%, 0 h
  viable count by quantitative culture (cfu/ml): 6.5 × 10^5 cfu/ml
  OD, average of 3 measurements: 0.292
Totarol 0.0007%, 8 h
  viable count by quantitative culture (cfu/ml): 4.5 × 10^5 cfu/ml
  OD, average of 3 measurements: 0.300
Totarol 0.0007%, 16 h
  viable count by quantitative culture (cfu/ml): 8.1 × 10^6 cfu/ml
  OD, average of 3 measurements: 0.902
Totarol 0.0007%, 24 h
  viable count by quantitative culture (cfu/ml): 5.1 × 10^7 cfu/ml
  OD: 1.504
Totarol 0.0013%, 0 h
  viable count by quantitative culture (cfu/ml): 3.8 × 10^5 cfu/ml
  OD, average of 3 measurements: 0.293
Totarol 0.0013%, 8 h
  viable count by quantitative culture (cfu/ml): 3.2 × 10^5 cfu/ml
  OD, average of 3 measurements: 0.305
Totarol 0.0013%, 16 h
  viable count by quantitative culture (cfu/ml): 5.1 × 10^6 cfu/ml
  OD, average of 3 measurements: 0.913
Totarol 0.0013%, 24 h
  viable count by quantitative culture (cfu/ml): 4.1 × 10^7 cfu/ml
  OD: 1.521
Totarol 0.0025%, 0 h
  viable count by quantitative culture (cfu/ml): 2.8 × 10^5 cfu/ml
  OD, average of 3 measurements: 0.284
Totarol 0.0025%, 8 h
  viable count by quantitative culture (cfu/ml): 1.0 × 10^5 cfu/ml
  OD, average of 3 measurements: 0.303
Totarol 0.0025%, 16 h
  viable count by quantitative culture (cfu/ml): 8.4 × 10^6 cfu/ml
  OD, average of 3 measurements: 0.914
Totarol 0.0025%, 24 h
  viable count by quantitative culture (cfu/ml): 1.4 × 10^7 cfu/ml
  OD: 1.552
Totarol 0.005%, 0 h
  viable count by quantitative culture (cfu/ml): 4.2 × 10^5 cfu/ml
  OD, average of 3 measurements: 0.288
Totarol 0.005%, 8 h
  viable count by quantitative culture (cfu/ml): 1.2 × 10^5 cfu/ml
  OD, average of 3 measurements: 0.300
Totarol 0.005%, 16 h
  viable count by quantitative culture (cfu/ml): 1.8 × 10^6 cfu/ml
  OD, average of 3 measurements: 0.895
Totarol 0.005%, 24 h
  viable count by quantitative culture (cfu/ml): 3.8 × 10^7 cfu/ml
  OD: 1.476
Totarol 0.01%, 0 h
  viable count by quantitative culture (cfu/ml): 5.5 × 10^5 cfu/ml
  OD, average of 3 measurements: 0.295
Totarol 0.01%, 8 h
  viable count by quantitative culture (cfu/ml): 5 × 10^5 cfu/ml
  OD, average of 3 measurements: 0.298
Totarol 0.01%, 16 h
  viable count by quantitative culture (cfu/ml): 6.4 × 10^6 cfu/ml
  OD, average of 3 measurements: 0.871
Totarol 0.01%, 24 h
  viable count by quantitative culture (cfu/ml): 3.4 × 10^7 cfu/ml
  OD: 1.445
Totarol 0.02%, 0 h
  viable count by quantitative culture (cfu/ml): 7.5 × 10^5 cfu/ml
  OD, average of 3 measurements: 0.330
Totarol 0.02%, 8 h
  viable count by quantitative culture (cfu/ml): 1.0 × 10^5 cfu/ml
  OD, average of 3 measurements: 0.299
Totarol 0.02%, 16 h
  viable count by quantitative culture (cfu/ml): 5.1 × 10^6 cfu/ml
  OD, average of 3 measurements: 0.837
Totarol 0.02%, 24 h
  viable count by quantitative culture (cfu/ml): 3.1 × 10^7 cfu/ml
  OD: 1.375
Totarol 0.04%, 0 h
  viable count by quantitative culture (cfu/ml): 2.6 × 10^5 cfu/ml
  OD, average of 3 measurements: 0.398
Totarol 0.04%, 8 h
  viable count by quantitative culture (cfu/ml): 1.6 × 10^5 cfu/ml
  OD, average of 3 measurements: 0.370
Totarol 0.04%, 16 h
  viable count by quantitative culture (cfu/ml): 2.4 × 10^5 cfu/ml
  OD, average of 3 measurements: 0.379
Totarol 0.04%, 24 h
  viable count by quantitative culture (cfu/ml): 2.4 × 10^5 cfu/ml
  OD: 0.397
Totarol 0.08%, 0 h
  viable count by quantitative culture (cfu/ml): 3.2 × 10^5 cfu/ml
  OD, average of 3 measurements: 0.401
Totarol 0.08%, 8 h
  viable count by quantitative culture (cfu/ml): 1.2 × 10^4 cfu/ml
  OD, average of 3 measurements: 0.413
Totarol 0.08%, 16 h
  viable count by quantitative culture (cfu/ml): 3.5 × 10^4 cfu/ml
  OD, average of 3 measurements: 0.368
Totarol 0.08%, 24 h
  viable count by quantitative culture (cfu/ml): 5 × 10^4 cfu/ml
  OD: 0.357
Totarol 0.16%, 0 h
  viable count by quantitative culture (cfu/ml): 3.7 × 10^5 cfu/ml
  OD, average of 3 measurements: 0.472
Totarol 0.16%, 8 h
  viable count by quantitative culture (cfu/ml): 4 × 10^4 cfu/ml
  OD, average of 3 measurements: 0.320
Totarol 0.16%, 16 h
  viable count by quantitative culture (cfu/ml): 7.1 × 10^4 cfu/ml
  OD, average of 3 measurements: 0.346
Totarol 0.16%, 24 h
  viable count by quantitative culture (cfu/ml): 4.1 × 10^4 cfu/ml
  OD: 0.371
